# What was measured:
# Type in all cases: cell-based, human
# WI-38 cells [1] = assay: Clonogenic assay in WI-38 cells; settings: seven days treatment, read-out: IC50 to inhibit growth (survival fraction)
# Procedure: (§1) Further, clonogenic assay is considered as the gold standard method for evaluating the anticancer activity of any compound and is also a good indicator of the in vivo efficacy of any anticancer compound. Therefore, the therapeutic index of DSePA and D-DSePA in A549/WI-38 cells was also validated by employing the clonogenic assay. For this, A549/WI-38 cells were treated with the varying concentrations (0.1-2 μM)/(1-500 μM) of DSePA/D-DSePA for seven days and the survival fraction was calculated by counting the number of surviving clones (FIG. 11A). The plot of survival fraction verses the concentration of DScPA/D-DSCPA was used to estimate the IC50 of above compounds to inhibit the growth of A549/WI-38 cells. […] This clearly confirmed that deuteration of DScPA reduced its toxicity in normal cells without compromising its efficacy in cancer cells. […]
# (§2) Clonogenic assay—Clonogenic assay was performed according to the method reported previously. […] After 7 days, colonies were fixed with absolute methanol for 5 min, stained with 0.5% crystal violet for 5 min, washed with distilled water to remove excess stain and counted manually under a stereo microscope. […] The plating efficiency and the survival fraction under irradiated and drug treated conditions were calculated using following formulae: […]
# (§3) The plating efficiency of A549 and WI38 cells was calculated by seeding ˜300 and ˜500 cells respectively. […]
# H1975 cells = assay: MTT assay, anti-proliferative effect in H1975 cells; settings: 48 h treatment, read-out: IC50 to inhibit cell proliferation
# Procedure: (§4) Therefore, D-DSePA was compared with un-deuterated DSePA for its anticancer activity in A549, H1975 and H3122 cell lines which are representative of NSCLC. For this, above cells were treated with the varying concentrations (0.1-100 μM) of DSePA/D-DSePA for 48 h and the cell viability was determined by MTT assay (FIG. 9A-C). The plot of percent (%) cytotoxicity (100-% viability) versus the concentration of DSePA/D-DSePA was used to estimate the half maximum concentration (IC50) of above compounds to inhibit the proliferation of cells. […] Employing these values, the therapeutic index (IC50 in normal lung cell/IC50 in lung cancer cell) of DSePA and D-DSePA in different pairs of normal versus cancerous cells (viz., A549/WI-38, A549/WI-26 VA4, H1975/WI-38, H1975/WI-26 VA4, H3122/WI-38 and H3122/WI-26 VA4) was calculated (Table-3). […]
# (§5) MTT Assay—To evaluate the anti-proliferative effect of D-DScPA and DScPA, Cells (˜5×10^3) suspended in 100 μl of complete culture medium were seeded in each well of 96 well plates. […] The percentage (%) cytotoxicity was calculated from the decrease in absorbance at 570 nm of treated groups as compared to that of control group. […] The therapeutic index was calculated by normalizing the IC50 concentration of D-DSePA/DSePA in non-cancerous cells to that in cancerous cells.
# H3122 cells = assay: MTT assay, anti-proliferative effect in H3122 cells; settings: 48 h treatment, read-out: IC50 to inhibit cell proliferation
# Procedure: as §4, §5
# A549 cells [2] = assay: MTT assay, anti-proliferative effect in A549 cells; settings: 48 h treatment, read-out: IC50 to inhibit cell proliferation
# Procedure: as §4, §5
# WI-26 VA4 cells = assay: MTT assay, toxicity in non-cancerous lung fibroblast WI-26 VA4 cells; settings: 48 h post treatment, read-out: IC50 for inhibiting the cell proliferation
# Description: as §4, with “For this, above cells were treated with the varying concentrations (0.1-100 μM) of DSePA/D-DSePA for 48 h and the cell viability was determined by MTT assay (FIG. 9A-C).” left out, “cells. […] Similarly, the toxicity of DSePA/D-DSePA was studied in non-cancerous lung fibroblast cells, WI-38 and WI-26 VA4 in the concentration range of 0.1 to 1000 μM at 48 h post treatment by MTT assay (FIG. 9D and 9E).” for “cells.”
# as §5
# A549 cells [3] = assay: Clonogenic assay in A549 cells; settings: seven days treatment, read-out: IC50 to inhibit growth (survival fraction)
# Procedure: as §1, §2, §3
# WI-38 cells [4] = assay: MTT assay, toxicity in non-cancerous lung fibroblast WI-38 cells; settings: WI38 cells, 48 h post treatment, read-out: IC50 for inhibiting the cell proliferation
# Description: as §4, with “For this, above cells were treated with the varying concentrations (0.1-100 μM) of DSePA/D-DSePA for 48 h and the cell viability was determined by MTT assay (FIG. 9A-C).” left out, “cells. […] Similarly, the toxicity of DSePA/D-DSePA was studied in non-cancerous lung fibroblast cells, WI-38 and WI-26 VA4 in the concentration range of 0.1 to 1000 μM at 48 h post treatment by MTT assay (FIG. 9D and 9E).” for “cells.”
# as §5
structure (smiles),measurement,setting,value
"O=C(O)CC[Se][Se]CCC(=O)O [D-DSePA, 3,3′-diselenodipropionic acid-D8]",IC50,WI-38 cells [1],35.5 ± 0.02 µM
same,IC50,H1975 cells,4.6 ± 0.7 µM
same,IC50,H3122 cells,46.5 ± 2.9 µM
same,IC50,A549 cells [2],15.2 ± 0.9 µM
same,IC50,WI-26 VA4 cells,550 ± 10.2 µM
same,IC50,A549 cells [3],0.9 ± 0.03 µM
same,IC50,WI-38 cells [4],1000 ± 6.3 µM
